Values after ≈ are worked out from the molar mass of the structure shown. Active and inactive are the calls of the source. No cut-off for these calls is given here.
Experiments:
CYP2C9 = CYP2C9 (Homo sapiens, UniProt P11712); assay: Inhibition of CYP2C9 (unknown origin) at 10 uM relative to control; format: ADME
[1] = Drug uptake in brain of lean C57BL/6J mouse by autoradiography; format: ADME, tissue-based; settings: in vivo
[2] = Drug concentration in DIO mouse brain at 10 mg/kg, po measured for 6 hrs relative to plasma concentration; format: ADME, organism-based
[3] = Drug concentration in DIO mouse brain at 10 mg/kg, po measured for 6 hrs; format: ADME, organism-based; settings: read-out: Drug uptake
[4] = Drug concentration in DIO mouse brain at 10 mg/kg, po measured for 24 hrs; format: ADME, organism-based; settings: brain, read-out: Drug uptake
[5] = Drug concentration in DIO mouse adipose tissue at 10 mg/kg, po measured for 6 hrs; format: ADME, organism-based; settings: read-out: Drug uptake
[6] = Drug concentration in DIO mouse liver at 10 mg/kg, po measured for 6 hrs; format: ADME, organism-based; settings: read-out: Drug uptake
[7] = Drug concentration in DIO mouse adipose tissue assessed as fold increase at 10 mg/kg, po measured for 6 hrs relative to plasma concentration; format: ADME, organism-based; settings: read-out: FC
[8] = In vivo inverse agonist activity at CB1 receptor in DIO mouse assessed as efficacy at 10 mg/kg, po measured after 6 hrs; format: functional
[9] = target: T1, Glucose-dependent insulinotropic receptor (Homo sapiens) (UniProt Q8TDV5); assay: Inhibition of GPR119 (unknown origin) at 1 uM relative to control
T1 sequence (whole entry): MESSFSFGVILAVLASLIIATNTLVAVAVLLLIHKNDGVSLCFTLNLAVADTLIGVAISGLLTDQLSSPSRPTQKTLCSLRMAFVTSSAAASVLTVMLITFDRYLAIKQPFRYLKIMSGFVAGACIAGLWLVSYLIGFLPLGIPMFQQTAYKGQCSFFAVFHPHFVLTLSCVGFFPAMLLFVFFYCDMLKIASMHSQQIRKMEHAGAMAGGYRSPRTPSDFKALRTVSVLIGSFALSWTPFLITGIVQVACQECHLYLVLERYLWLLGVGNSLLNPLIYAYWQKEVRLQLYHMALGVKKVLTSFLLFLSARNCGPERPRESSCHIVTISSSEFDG

[10] = target: G-protein coupled receptor 55 (Homo sapiens) (UniProt Q9Y2T6); assay: Inhibition of GPR55 (unknown origin) at 1 uM relative to control
G-protein coupled receptor 55 (Homo sapiens), sequence (Q9Y2T6 whole entry): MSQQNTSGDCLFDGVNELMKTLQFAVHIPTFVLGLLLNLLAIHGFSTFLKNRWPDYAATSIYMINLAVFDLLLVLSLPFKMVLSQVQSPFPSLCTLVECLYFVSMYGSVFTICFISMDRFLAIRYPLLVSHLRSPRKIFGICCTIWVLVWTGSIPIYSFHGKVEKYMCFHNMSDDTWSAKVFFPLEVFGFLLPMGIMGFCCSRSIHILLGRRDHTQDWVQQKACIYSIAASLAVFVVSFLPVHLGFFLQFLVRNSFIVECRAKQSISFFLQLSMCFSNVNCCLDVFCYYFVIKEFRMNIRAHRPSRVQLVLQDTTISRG

Liver = assay: In vivo inhibition of CB1 receptor in liver of lean C57BL/6J mouse by autoradiography; format: functional, organism-based
[11] = Lipophilicity, logD of compound by chromatographic analysis; format: physicochemical
Cannabinoid receptor 1 [12] = target: T2, Cannabinoid receptor 1 (Homo sapiens, UniProt P21554); assay: Antagonist activity at human CB1 receptor expressed in CHO-K1 cell membrane in presence of CP55940 by GTP-gamma-S assay; format: functional, cell membranes
T2 sequence (P21554 whole entry): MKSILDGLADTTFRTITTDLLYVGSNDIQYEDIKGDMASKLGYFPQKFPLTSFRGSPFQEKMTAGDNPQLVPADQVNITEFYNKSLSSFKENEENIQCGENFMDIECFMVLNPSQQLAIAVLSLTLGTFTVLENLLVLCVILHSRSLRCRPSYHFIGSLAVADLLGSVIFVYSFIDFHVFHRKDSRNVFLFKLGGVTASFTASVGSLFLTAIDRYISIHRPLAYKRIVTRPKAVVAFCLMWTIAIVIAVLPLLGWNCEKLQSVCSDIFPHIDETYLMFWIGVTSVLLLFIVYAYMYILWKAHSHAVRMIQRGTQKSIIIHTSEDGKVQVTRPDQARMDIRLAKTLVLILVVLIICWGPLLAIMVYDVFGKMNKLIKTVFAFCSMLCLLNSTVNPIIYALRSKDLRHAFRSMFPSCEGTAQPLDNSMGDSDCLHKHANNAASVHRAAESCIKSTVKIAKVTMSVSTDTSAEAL

Cannabinoid receptor 1 [13] = target: T2, Cannabinoid receptor 1; assay: Inverse agonist activity at human CB1 receptor expressed in CHO-K1 cell membrane by GTP-gamma-S assay; format: functional, cell membranes
Cannabinoid receptor 1 [14] = target: T2, Cannabinoid receptor 1; assay: Inverse agonist activity at human CB1 receptor expressed in African green monkey COS7 cells co-expressing G-protein in presence of CP55940 by IP3 assay; format: functional, cell membranes, Membrane
Cannabinoid receptor 2 = Cannabinoid receptor 2 (Homo sapiens, UniProt P34972); assay: Inverse agonist activity at human CB2 receptor expressed in CHO-K1 cell membrane in presence of CP55940 by GTP-gamma-S assay; format: functional, cell membranes
Cannabinoid receptor 2, sequence (P34972 whole entry): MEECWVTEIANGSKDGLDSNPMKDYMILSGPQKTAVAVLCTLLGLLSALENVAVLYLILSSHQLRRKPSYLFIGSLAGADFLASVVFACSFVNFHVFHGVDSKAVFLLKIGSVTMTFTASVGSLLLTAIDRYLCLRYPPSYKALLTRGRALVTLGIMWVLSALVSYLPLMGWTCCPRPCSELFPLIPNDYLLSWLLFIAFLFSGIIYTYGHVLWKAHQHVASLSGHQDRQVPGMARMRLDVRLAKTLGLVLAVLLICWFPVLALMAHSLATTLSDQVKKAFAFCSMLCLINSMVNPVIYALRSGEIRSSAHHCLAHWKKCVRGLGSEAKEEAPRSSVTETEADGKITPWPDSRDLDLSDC

[15] = Solubility of compound; format: physicochemical
[16] = Clearance in rat hepatocytes assessed per million cells; format: ADME, cell-based, Hepatocyte
[17] = Half life in NMRI mouse at 2 mg/kg, iv; format: ADME, organism-based; settings: in vivo
[18] = Clearance in NMRI mouse at 2 mg/kg, iv; format: ADME, organism-based; settings: in vivo
[19] = Volume of distribution at steady state in NMRI mouse at 2 mg/kg, iv; format: ADME, organism-based; settings: in vivo, read-out: Vdss
[20] = Cmax in NMRI mouse at 10 mg/kg, po; format: ADME, organism-based; set-up: dose 10 mg/kg, route po; settings: in vivo
[21] = Tmax in NMRI mouse at 10 mg/kg, po; format: ADME, organism-based; settings: in vivo
[22] = Half life in NMRI mouse at 10 mg/kg, po; format: ADME, organism-based; settings: in vivo
[23] = Oral bioavailability in NMRI mouse at 10 mg/kg; format: ADME, organism-based; settings: in vivo
[24] = AUC (infinity) in NMRI mouse at 2 mg/kg, iv; format: ADME, organism-based; set-up: dose 2 mg/kg, route iv; settings: in vivo
[25] = AUC (infinity) in NMRI mouse at 10 mg/kg, po; format: ADME, organism-based; set-up: dose 10 mg/kg, route po; settings: in vivo
[26] = Cmax in NMRI mouse at 30 mg/kg, po; format: ADME, organism-based; set-up: dose 30 mg/kg, route po; settings: in vivo
[27] = Tmax in NMRI mouse at 30 mg/kg, po; format: ADME, organism-based; settings: in vivo
[28] = Half life in NMRI mouse at 30 mg/kg, po; format: ADME, organism-based; settings: in vivo
[29] = AUC (infinity) in NMRI mouse at 30 mg/kg, po; format: ADME, organism-based; set-up: dose 30 mg/kg, route po; settings: in vivo
[30] = Oral bioavailability in NMRI mouse at 30 mg/kg; format: ADME, organism-based; settings: in vivo
[31] = Protein binding in NMRI mouse plasma; format: ADME, cell-free; settings: read-out: PPB
[32] = Efflux ratio of permeability in human Caco-2 cells; format: ADME, cell-based
[33] = Drug concentration in NMRI mouse brain relative to plasma concentration; format: ADME, tissue-based
[34] = Subchronic toxicity in DIO mouse assessed as reduction in body weight at 10 mg/kg, po measured after 7 days; format: organism-based; set-up: scale not given: the % may be the effect or the level left; settings: in vivo, 168 h, time 7 day
[35] = Drug concentration in DIO mouse plasma at 10 mg/kg, po measured for 6 hrs; format: ADME, organism-based

CYP2C9, sequence (P11712 whole entry): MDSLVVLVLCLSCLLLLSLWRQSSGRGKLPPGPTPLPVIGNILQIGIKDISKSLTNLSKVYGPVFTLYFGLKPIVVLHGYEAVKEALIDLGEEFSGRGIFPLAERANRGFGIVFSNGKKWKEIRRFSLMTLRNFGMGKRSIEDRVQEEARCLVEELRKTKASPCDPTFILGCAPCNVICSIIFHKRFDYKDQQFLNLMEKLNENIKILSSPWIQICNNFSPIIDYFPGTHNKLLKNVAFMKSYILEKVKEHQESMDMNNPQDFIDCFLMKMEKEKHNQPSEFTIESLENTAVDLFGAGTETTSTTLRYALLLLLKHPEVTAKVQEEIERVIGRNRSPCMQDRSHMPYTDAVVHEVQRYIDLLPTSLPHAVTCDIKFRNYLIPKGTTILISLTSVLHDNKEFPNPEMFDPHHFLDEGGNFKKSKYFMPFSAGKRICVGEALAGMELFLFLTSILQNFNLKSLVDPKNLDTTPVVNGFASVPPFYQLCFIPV

C[C@@H](NC(=O)c1nn(-c2ccccc2Cl)c(-c2ccc(Cl)cc2)c1Cc1nn[nH]n1)c1ccc(C(F)(F)F)cc1
inhibition at 10 µM (CYP2C9): 39%
Drug uptake [1]: Active
Drug uptake [2]: 1.3%
concentration at 6 h [3]: 0.08 µM
concentration at 24 h [4]: 0.02 µM
concentration at 6 h [5]: 1.2 µM
concentration at 6 h [6]: 47 µM
Kp at 6 h [7]: 5
Efficacy [8]: 11%
inhibition [9]: < 30%
inhibition [10]: < 30%
inhibition (Liver): Active
chromatographic logD [11]: 2.8
IC50 (Cannabinoid receptor 1 [12]): 6.7 nM
IC50 (Cannabinoid receptor 1 [13]): 24 nM
IC50 (Cannabinoid receptor 1 [14]): 3.3 nM
IC50 (Cannabinoid receptor 2): 4500 nM
solubility [15]: 250 µM (≈ 147 µg/mL)
CLH [16]: 16 µL/min/1e6 cells
half-life [17]: 2.5 h
clearance [18]: 2.6 mL/min/kg
Vd [19]: 0.4 L/kg
Cmax [20]: 13 µM
Tmax [21]: 2 h
half-life [22]: 3.1 h
bioavailability [23]: 95%
AUC(0-inf) [24]: 22 µM·h
AUC(0-inf) [25]: 104 µM·h
Cmax [26]: 41 µM
Tmax [27]: 2 h
half-life [28]: 4 h
AUC(0-inf) [29]: 297 µM·h
bioavailability [30]: 91%
fraction unbound [31]: < 0.01
efflux ratio [32]: 1
Drug uptake [33]: ~ 1%
Activity [34]: 11.4%
concentration at 6 h [35]: 6.5 µM
